Experimental data as given in US20260132164A1, “PNU ANTHRACYCLINE DERIVATIVES AND METHODS OF USE THEREOF” (Merck Sharp & Dohme LLC, priority 2022, published 2026).

What follows are compounds tested on BxPC3 (assay: CellTiter-Glo 2.0 Cytotoxicity Assay). Conditions: CellTiter-Glo 2.0 luminescence; compound added day 1, read on day 4 or 5; 3000 cells/well.
Type: cell-based
Work on `COc1cccc2c1C(=O)c1c(O)c3c(c(O)c1C2=O)C[C@@](O)(C(=O)NC1CNCC1(F)F)C[C@@H]3O[C@H]1C[C@H]2[C@H](O[C@@H]3[C@@H](OC)OCCN32)[C@H](C)O1` (stereo partly drawn) [Compound 16] yielded an EC50 of 24 nM.
In the case of `COc1cccc2c1C(=O)c1c(O)c3c(c(O)c1C2=O)C[C@@](O)(C(=O)NC1CNCC1(F)F)C[C@@H]3O[C@H]1C[C@H]2[C@H](O[C@@H]3[C@@H](OC)OCCN32)[C@H](C)O1` (stereo partly drawn) [Compound 17], the EC50 is reported as 10.7 nM.
Compound `COc1cccc2c1C(=O)c1c(O)c3c(c(O)c1C2=O)C[C@@](O)(C(=O)NC1CCC1N)C[C@@H]3O[C@H]1C[C@H]2[C@H](O[C@@H]3[C@@H](OC)OCCN32)[C@H](C)O1` (stereo partly drawn) [Compound 19] has an EC50 of 4 nM.
With `COc1cccc2c1C(=O)c1c(O)c3c(c(O)c1C2=O)C[C@@](O)(C(=O)NC1CCC1N)C[C@@H]3O[C@H]1C[C@H]2[C@H](O[C@@H]3[C@@H](OC)OCCN32)[C@H](C)O1` (stereo partly drawn) [Compound 20] the EC50 was 8.5 nM.

Same assay, conditions: Homo sapiens, BXPC-3, CellTiter-Glo 2.0 luminescence; compound added day 1, read on day 4 or 5; 3000 cells/well
`COc1cccc2c1C(=O)c1c(O)c3c(c(O)c1C2=O)C[C@@](O)(C(=O)NCCCN(C)CCCN)C[C@@H]3O[C@H]1C[C@H]2[C@H](O[C@@H]3[C@@H](OC)OCCN32)[C@H](C)O1` [Compound 14] gave an EC50 of 11 nM.
With `COc1cccc2c1C(=O)c1c(O)c3c(c(O)c1C2=O)C[C@@](O)(C(=O)NCCN1CCC(N)C1=O)C[C@@H]3O[C@H]1C[C@H]2[C@H](O[C@@H]3[C@@H](OC)OCCN32)[C@H](C)O1` (stereo partly drawn) [Compound 15] the EC50 was 64 nM.
For `COc1cccc2c1C(=O)c1c(O)c3c(c(O)c1C2=O)C[C@@](O)(C(=O)NCCCN)C[C@@H]3O[C@H]1C[C@H]2[C@H](O[C@@H]3[C@@H](OC)OCCN32)[C@H](C)O1` [Compound 18], the EC50 was 8.5 nM.
`COc1cccc2c1C(=O)c1c(O)c3c(c(O)c1C2=O)C[C@@](O)(C(=O)NCc1ccc(N)cc1)C[C@@H]3O[C@H]1C[C@H]2[C@H](O[C@@H]3[C@@H](OC)OCCN32)[C@H](C)O1` [Compound 23] gave an EC50 of 0.06 nM.
With `COc1cccc2c1C(=O)c1c(O)c3c(c(O)c1C2=O)C[C@@](O)(C(=O)N1CC(N)C1)C[C@@H]3O[C@H]1C[C@H]2[C@H](O[C@@H]3[C@@H](OC)OCCN32)[C@H](C)O1` [Compound 24] the EC50 was 8.3 nM.
In the case of `COc1cccc2c1C(=O)c1c(O)c3c(c(O)c1C2=O)C[C@@](O)(C(=O)N[C@H]1CCCC[C@@H]1N)C[C@@H]3O[C@H]1C[C@H]2[C@H](O[C@@H]3[C@@H](OC)OCCN32)[C@H](C)O1` [Compound 25], the EC50 is reported as 10.5 nM.
`COc1cccc2c1C(=O)c1c(O)c3c(c(O)c1C2=O)C[C@@](O)(C(=O)N[C@@H]1CCCC[C@H]1N)C[C@@H]3O[C@H]1C[C@H]2[C@H](O[C@@H]3[C@@H](OC)OCCN32)[C@H](C)O1` [Compound 26] gave an EC50 of 2.7 nM.
In the case of `COc1cccc2c1C(=O)c1c(O)c3c(c(O)c1C2=O)C[C@@](O)(C(=O)NC1CNC1)C[C@@H]3O[C@H]1C[C@H]2[C@H](O[C@@H]3[C@@H](OC)OCCN32)[C@H](C)O1` [Compound 27], the EC50 is reported as 39 nM.
For `COc1cccc2c1C(=O)c1c(O)c3c(c(O)c1C2=O)C[C@@](O)(C(=O)N1CC2(CCNC2)C1)C[C@@H]3O[C@H]1C[C@H]2[C@H](O[C@@H]3[C@@H](OC)OCCN32)[C@H](C)O1` [Compound 28], the EC50 was 478 nM.
With `COc1cccc2c1C(=O)c1c(O)c3c(c(O)c1C2=O)C[C@@](O)(C(=O)N1CCC2(CNC2)C1)C[C@@H]3O[C@H]1C[C@H]2[C@H](O[C@@H]3[C@@H](OC)OCCN32)[C@H](C)O1` [Compound 29] the EC50 was 90 nM.
Compound `COc1cccc2c1C(=O)c1c(O)c3c(c(O)c1C2=O)C[C@@](O)(C(=O)N1CC2(CNC2)C1)C[C@@H]3O[C@H]1C[C@H]2[C@H](O[C@@H]3[C@@H](OC)OCCN32)[C@H](C)O1` [Compound 30] has an EC50 of 14 nM.
`COc1cccc2c1C(=O)c1c(O)c3c(c(O)c1C2=O)C[C@@](O)(C(=O)NC[C@H]1C[C@@H](N)C1)C[C@@H]3O[C@H]1C[C@H]2[C@H](O[C@@H]3[C@@H](OC)OCCN32)[C@H](C)O1` [Compound 31] gave an EC50 of 2.6 nM.
For `COc1cccc2c1C(=O)c1c(O)c3c(c(O)c1C2=O)C[C@@](O)(C(=O)NCc1ccc(N)cn1)C[C@@H]3O[C@H]1C[C@H]2[C@H](O[C@@H]3[C@@H](OC)OCCN32)[C@H](C)O1` [Compound 32], the EC50 was 0.07 nM.
`COc1cccc2c1C(=O)c1c(O)c3c(c(O)c1C2=O)C[C@@](O)(C(=O)N[C@@H]1CC[C@H](N)C1)C[C@@H]3O[C@H]1C[C@H]2[C@H](O[C@@H]3[C@@H](OC)OCCN32)[C@H](C)O1` [Compound 33] gave an EC50 of 9.2 nM.
`COc1cccc2c1C(=O)c1c(O)c3c(c(O)c1C2=O)C[C@@](O)(C(=O)N[C@H]1CC[C@@H](N)C1)C[C@@H]3O[C@H]1C[C@H]2[C@H](O[C@@H]3[C@@H](OC)OCCN32)[C@H](C)O1` [Compound 34] was tested, and the EC50 was 19 nM.
`COc1cccc2c1C(=O)c1c(O)c3c(c(O)c1C2=O)C[C@@](O)(C(=O)N[C@H]1[C@@H]2CNC[C@@H]21)C[C@@H]3O[C@H]1C[C@H]2[C@H](O[C@@H]3[C@@H](OC)OCCN32)[C@H](C)O1` [Compound 35] was tested, and the EC50 was 0.97 nM.
For `COc1cccc2c1C(=O)c1c(O)c3c(c(O)c1C2=O)C[C@@](O)(C(=O)NCC1(F)CNC1)C[C@@H]3O[C@H]1C[C@H]2[C@H](O[C@@H]3[C@@H](OC)OCCN32)[C@H](C)O1` [Compound 36], the EC50 was 0.42 nM.
`COc1cccc2c1C(=O)c1c(O)c3c(c(O)c1C2=O)C[C@@](O)(C(=O)NC[C@H]1CCNC1)C[C@@H]3O[C@H]1C[C@H]2[C@H](O[C@@H]3[C@@H](OC)OCCN32)[C@H](C)O1` [Compound 37] was tested, and the EC50 was 8 nM.
Work on `CNCCCNC(=O)[C@]1(O)Cc2c(O)c3c(c(O)c2[C@@H](O[C@H]2C[C@H]4[C@H](O[C@@H]5[C@@H](OC)OCCN54)[C@H](C)O2)C1)C(=O)c1c(OC)cccc1C3=O` [Compound 38] yielded an EC50 of 9.1 nM.
`COc1cccc2c1C(=O)c1c(O)c3c(c(O)c1C2=O)C[C@@](O)(C(=O)NCCCN1CCNCC1)C[C@@H]3O[C@H]1C[C@H]2[C@H](O[C@@H]3[C@@H](OC)OCCN32)[C@H](C)O1` [Compound 39] gave an EC50 of 3.8 nM.
Work on `COc1cccc2c1C(=O)c1c(O)c3c(c(O)c1C2=O)C[C@@](O)(C(=O)NCC[C@@H]1CCCN1)C[C@@H]3O[C@H]1C[C@H]2[C@H](O[C@@H]3[C@@H](OC)OCCN32)[C@H](C)O1` [Compound 40] yielded an EC50 of 4.3 nM.
For `COc1cccc2c1C(=O)c1c(O)c3c(c(O)c1C2=O)C[C@@](O)(C(=O)NCc1ccc(CN)cc1)C[C@@H]3O[C@H]1C[C@H]2[C@H](O[C@@H]3[C@@H](OC)OCCN32)[C@H](C)O1` [Compound 41], the EC50 was 0.42 nM.
In the case of `COc1cccc2c1C(=O)c1c(O)c3c(c(O)c1C2=O)C[C@@](O)(C(=O)N[C@H]1C[C@H](N)C1)C[C@@H]3O[C@H]1C[C@H]2[C@H](O[C@@H]3[C@@H](OC)OCCN32)[C@H](C)O1` [Compound 42], the EC50 is reported as 12 nM.
For `COc1cccc2c1C(=O)c1c(O)c3c(c(O)c1C2=O)C[C@@](O)(C(=O)NC[C@H]1C[C@H](N)C1)C[C@@H]3O[C@H]1C[C@H]2[C@H](O[C@@H]3[C@@H](OC)OCCN32)[C@H](C)O1` [Compound 43], the EC50 was 2.2 nM.
For `COc1cccc2c1C(=O)c1c(O)c3c(c(O)c1C2=O)C[C@@](O)(C(=O)NC12CC(CN)(C1)C2)C[C@@H]3O[C@H]1C[C@H]2[C@H](O[C@@H]3[C@@H](OC)OCCN32)[C@H](C)O1` [Compound 44], the EC50 was 4.8 nM.
In the case of `COc1cccc2c1C(=O)c1c(O)c3c(c(O)c1C2=O)C[C@@](O)(C(=O)NCC[C@H]1CCCN1)C[C@@H]3O[C@H]1C[C@H]2[C@H](O[C@@H]3[C@@H](OC)OCCN32)[C@H](C)O1` [Compound 45], the EC50 is reported as 0.6 nM.
Compound `COc1cccc2c1C(=O)c1c(O)c3c(c(O)c1C2=O)C[C@@](O)(C(=O)NC1CC2(CNC2)C1)C[C@@H]3O[C@H]1C[C@H]2[C@H](O[C@@H]3[C@@H](OC)OCCN32)[C@H](C)O1` [Compound 46] has an EC50 of 18 nM.
Work on `COc1cccc2c1C(=O)c1c(O)c3c(c(O)c1C2=O)C[C@@](O)(C(=O)NCC1CNC1)C[C@@H]3O[C@H]1C[C@H]2[C@H](O[C@@H]3[C@@H](OC)OCCN32)[C@H](C)O1` [Compound 47] yielded an EC50 of 9.4 nM.
In the case of `COc1cccc2c1C(=O)c1c(O)c3c(c(O)c1C2=O)C[C@@](O)(C(=O)NCCN(C)C(=O)C1(N)CCCC1)C[C@@H]3O[C@H]1C[C@H]2[C@H](O[C@@H]3[C@@H](OC)OCCN32)[C@H](C)O1` [Compound 48], the EC50 is reported as 0.31 nM.
`COc1cccc2c1C(=O)c1c(O)c3c(c(O)c1C2=O)C[C@@](O)(C(=O)NCCC1(N)COC1)C[C@@H]3O[C@H]1C[C@H]2[C@H](O[C@@H]3[C@@H](OC)OCCN32)[C@H](C)O1` [Compound 51] showed an EC50 of 0.18 nM.
In the case of `COc1cccc2c1C(=O)c1c(O)c3c(c(O)c1C2=O)C[C@@](O)(C(=O)NCCN(C)C(=O)[C@@](C)(N)C(C)C)C[C@@H]3O[C@H]1C[C@H]2[C@H](O[C@@H]3[C@@H](OC)OCCN32)[C@H](C)O1` [Compound 52], the EC50 is reported as 1.9 nM.
`COc1cccc2c1C(=O)c1c(O)c3c(c(O)c1C2=O)C[C@@](O)(C(=O)N[C@H]1C[C@@H](N)C1)C[C@@H]3O[C@H]1C[C@H]2[C@H](O[C@@H]3[C@@H](OC)OCCN32)[C@H](C)O1` [Compound 53] showed an EC50 of 7.7 nM.
Compound `COc1cccc2c1C(=O)c1c(O)c3c(c(O)c1C2=O)C[C@@](O)(C(=O)NCCCCN)C[C@@H]3O[C@H]1C[C@H]2[C@H](O[C@@H]3[C@@H](OC)OCCN32)[C@H](C)O1` [Compound 54] has an EC50 of 1.4 nM.
`COc1cccc2c1C(=O)c1c(O)c3c(c(O)c1C2=O)C[C@@](O)(C(=O)N[C@H]1C[C@@H](CN)C1)C[C@@H]3O[C@H]1C[C@H]2[C@H](O[C@@H]3[C@@H](OC)OCCN32)[C@H](C)O1` [Compound 55] showed an EC50 of 10.2 nM.
`COc1cccc2c1C(=O)c1c(O)c3c(c(O)c1C2=O)C[C@@](O)(C(=O)NCC(C)(C)CN)C[C@@H]3O[C@H]1C[C@H]2[C@H](O[C@@H]3[C@@H](OC)OCCN32)[C@H](C)O1` [Compound 56] was tested, and the EC50 was 1.4 nM.
`COc1cccc2c1C(=O)c1c(O)c3c(c(O)c1C2=O)C[C@@](O)(C(=O)NC12CNCC1C2)C[C@@H]3O[C@H]1C[C@H]2[C@H](O[C@@H]3[C@@H](OC)OCCN32)[C@H](C)O1` (stereo partly drawn) [Compound 57] was tested, and the EC50 was 1.6 nM.
`COc1cccc2c1C(=O)c1c(O)c3c(c(O)c1C2=O)C[C@@](O)(C(=O)NC[C@@H]1CCNC1)C[C@@H]3O[C@H]1C[C@H]2[C@H](O[C@@H]3[C@@H](OC)OCCN32)[C@H](C)O1` [Compound 58] was tested, and the EC50 was 3.9 nM.
`COc1cccc2c1C(=O)c1c(O)c3c(c(O)c1C2=O)C[C@@](O)(C(=O)N[C@H]1CC[C@H](N)CC1)C[C@@H]3O[C@H]1C[C@H]2[C@H](O[C@@H]3[C@@H](OC)OCCN32)[C@H](C)O1` [Compound 59] was tested, and the EC50 was 6.3 nM.
